Source: PubChem BioAssay AID330 (DTP/NCI, 2004)
Values joined by “and” are separate entries in the source; they are usually repeats but may differ in a detail not shown here. Equal values may be shown once. Inconclusive results and toxic doses are left out. The calls were made as follows: active = survival T/C of 150% or more; inactive = T/C below 125% in these data.

System: P388 leukemia ip, CD2F1 mice, survival T/C
Test: NCI In Vivo Anticancer Drug Screen. Data for tumor model P388 Leukemia (intraperitoneal) in CD2F1 (CDF1) mice
Settings: endpoint: median survival time, higher = longer survival
How it was run: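 Mice carrying the transplanted tumor received test compound or vehicle. Survival was recorded in each group, and the value is the treated-group measurement divided by that of the vehicle-treated control group.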

[1] = dose: 60.0 mg/kg/injection, schedule: Q01DX005 (ip), vehicle: saline
[2] = dose: 120.0 mg/kg/injection, schedule: Q01DX005 (ip), vehicle: saline
[3] = dose: 240.0 mg/kg/injection, schedule: Q01DX005 (ip), vehicle: saline
[4] = dose: 25.0 mg/kg/injection, schedule: Q01DX009 (ip), vehicle: saline
[5] = dose: 100.0 mg/kg/injection, schedule: Q01DX009 (ip), vehicle: Klucel (hydroxypropylcellulose) (HPC)
[6] = dose: 200.0 mg/kg/injection, schedule: Q01DX009 (ip), vehicle: Klucel (hydroxypropylcellulose) (HPC)
[7] = dose: 12.5 mg/kg/injection, schedule: Q01DX009 (ip), vehicle: saline
[8] = dose: 50.0 mg/kg/injection, schedule: Q01DX009 (ip), vehicle: saline
[9] = dose: 100.0 mg/kg/injection, schedule: Q01DX009 (ip), vehicle: saline
[10] = dose: 200.0 mg/kg/injection, schedule: Q01DX009 (ip), vehicle: saline
[11] = dose: 12.5 mg/kg/injection, schedule: Q01DX009 (ip), vehicle: saline with Tween-80
[12] = dose: 25.0 mg/kg/injection, schedule: Q01DX009 (ip), vehicle: saline with Tween-80
[13] = dose: 50.0 mg/kg/injection, schedule: Q01DX009 (ip), vehicle: saline with Tween-80
[14] = dose: 100.0 mg/kg/injection, schedule: Q01DX009 (ip), vehicle: saline with Tween-80
[15] = dose: 60.0 mg/kg/injection, schedule: Q01DX005 (ip), vehicle: saline with Tween-80
[16] = dose: 120.0 mg/kg/injection, schedule: Q01DX005 (ip), vehicle: saline with Tween-80
[17] = dose: 50.0 mg/kg/injection, schedule: Q01DX005 (ip), vehicle: saline with Tween-80
[18] = dose: 100.0 mg/kg/injection, schedule: Q01DX005 (ip), vehicle: saline with Tween-80
[19] = dose: 200.0 mg/kg/injection, schedule: Q01DX009 (ip), vehicle: saline with Tween-80

Measured: T/C

CC(C)Cc1cc(-c2cc(CC(C)C)on2)no1
inactive: [1] 100 % of control | [2] 104 % of control | [3] 100 % of control

CC1=CC(=NN=c2cc(C)n([O-])c(C)c2)C=C(C)[N+]1=O
inactive: [4] 118 % of control

NC(CCC(=O)NC(CS(=O)(=O)O)C(=O)O)C(=O)O (stereo not given)
inactive: [1] 108 % of control | [2] 108 % of control | [3] 108 % of control

NNC(=O)Cc1cc(=O)[nH][nH]1
inactive: [5] 101 % of control | [6] 100 % of control | dose: 400.0 mg/kg/injection, schedule: Q01DX009 (ip), vehicle: Klucel (hydroxypropylcellulose) (HPC) 108 % of control

OCCCN1CCN(CCCO)CC1
inactive: [7] 103 % of control and 96 % of control | [4] 97 % of control and 98 % of control | [8] 92 % of control and 97 % of control | [9] 101 % of control and 95 % of control | [10] 100 % of control and 106 % of control | dose: 400.0 mg/kg/injection, schedule: Q01DX009 (ip), vehicle: saline 103 % of control and 91 % of control

O=C(CC(=O)C(F)(F)F)c1cccs1.O=C(CC(=O)C(F)(F)F)c1cccs1.O=C(CC(=O)C(F)(F)F)c1cccs1.[Gd]
inactive: [8] 96 % of control | [9] 96 % of control | [10] 99 % of control

CC1(C)CCC2(C(=O)O)CCC3(C)C(=CCC4C5(C)CCC(OC6OC(CO)C(O)C(OC7OC(CO)C(O)C(O)C7O)C6OC6OC(CO)C(O)C(O)C6O)C(C)(C)C5CCC43C)C2C1 (stereo not given)
inactive: dose: 3.75 mg/kg/injection, schedule: Q01DX005 (ip), vehicle: Klucel (hydroxypropylcellulose) (HPC) 102 % of control | dose: 7.5 mg/kg/injection, schedule: Q01DX005 (ip), vehicle: Klucel (hydroxypropylcellulose) (HPC) 100 % of control | dose: 15.0 mg/kg/injection, schedule: Q01DX005 (ip), vehicle: Klucel (hydroxypropylcellulose) (HPC) 88 % of control | dose: 30.0 mg/kg/injection, schedule: Q01DX005 (ip), vehicle: Klucel (hydroxypropylcellulose) (HPC) 100 % of control

CC1=CC(=O)[C@@H](O)[C@]2(C)[C@H]3[C@@]4(O)OC[C@]35[C@H]([C@@H](C)[C@H]4O)[C@@H](O)C(=O)O[C@@H]5C[C@@H]12
inactive: dose: 6.25 mg/kg/injection, schedule: Q01DX009 (ip), vehicle: saline 115 % of control | [7] 104 % of control | [4] 115 % of control

COc1ccc(C(C)(C)CC(C)(C)C)cc1
inactive: [11] 101 % of control | [12] 104 % of control | [13] 104 % of control | [14] 109 % of control

CCOC(=O)c1cn(CC)c2cc(-n3cccc3)ccc2c1=O
inactive: [15] 93 % of control | [16] 98 % of control | dose: 240.0 mg/kg/injection, schedule: Q01DX005 (ip), vehicle: saline with Tween-80 92 % of control

C=C1C(=O)OC2C(OC(C)=O)CCCC12 (stereo not given)
inactive: dose: 60.0 mg/kg/injection, schedule: Q01DX005 (ip), vehicle: Klucel (hydroxypropylcellulose) (HPC) 112 % of control | dose: 120.0 mg/kg/injection, schedule: Q01DX005 (ip), vehicle: Klucel (hydroxypropylcellulose) (HPC) 103 % of control | dose: 240.0 mg/kg/injection, schedule: Q01DX005 (ip), vehicle: Klucel (hydroxypropylcellulose) (HPC) 108 % of control

CC12CCC3C(CCC4CC5OC(=O)CC5CC43C)C1CCC2=O (stereo not given)
inactive: dose: 50.0 mg/kg/injection, schedule: Q04DX003 (ip), vehicle: Klucel (hydroxypropylcellulose) (HPC) 102 % of control | dose: 100.0 mg/kg/injection, schedule: Q04DX003 (ip), vehicle: Klucel (hydroxypropylcellulose) (HPC) 107 % of control | dose: 200.0 mg/kg/injection, schedule: Q04DX003 (ip), vehicle: Klucel (hydroxypropylcellulose) (HPC) 106 % of control | dose: 400.0 mg/kg/injection, schedule: Q04DX003 (ip), vehicle: Klucel (hydroxypropylcellulose) (HPC) 101 % of control

CCOc1ccc2nc(SCCl)sc2c1
inactive: [12] 101 % of control | [13] 99 % of control | [14] 91 % of control

COC(=O)CCCCCCCCCCCC1C=CCC1 (stereo not given)
inactive: dose: 100.0 mg/kg/injection, schedule: Q01DX001 (ip), vehicle: saline 105 % of control | dose: 200.0 mg/kg/injection, schedule: Q01DX001 (ip), vehicle: saline 100 % of control | dose: 400.0 mg/kg/injection, schedule: Q01DX001 (ip), vehicle: saline 104 % of control

NC(=S)Nc1cccc2ccccc12
inactive: dose: 6.25 mg/kg/injection, schedule: Q01DX009 (ip), vehicle: saline with Tween-80 100 % of control and 112 % of control | [11] 113 % of control and 94 % of control | [12] 104 % of control and 91 % of control | [13] 94 % of control

CCCC(=O)C#C[Si](C)(C)C
inactive: [17] 103 % of control | [18] 103 % of control

Nc1nc(C2CCCC2)c(Br)c(=O)[nH]1
inactive: dose: 50.0 mg/kg/injection, schedule: Q01DX005 (ip), vehicle: Klucel (hydroxypropylcellulose) (HPC) 101 % of control | dose: 100.0 mg/kg/injection, schedule: Q01DX005 (ip), vehicle: Klucel (hydroxypropylcellulose) (HPC) 103 % of control | dose: 200.0 mg/kg/injection, schedule: Q01DX005 (ip), vehicle: Klucel (hydroxypropylcellulose) (HPC) 105 % of control

O=C1NCCCCCC1S(=O)c1ccccc1 (stereo not given)
inactive: [17] 103 % of control | [18] 96 % of control | dose: 200.0 mg/kg/injection, schedule: Q01DX005 (ip), vehicle: saline with Tween-80 101 % of control

CN(C)c1nc(OC2C(C3COC(C)(C)O3)OC3OC(C)(C)OC32)nc(N(C)C)n1 (stereo not given)
inactive: dose: 100.0 mg/kg/injection, schedule: Q04DX003 (ip), vehicle: saline with Tween-80 99 % of control | dose: 200.0 mg/kg/injection, schedule: Q04DX003 (ip), vehicle: saline with Tween-80 100 % of control | dose: 400.0 mg/kg/injection, schedule: Q04DX003 (ip), vehicle: saline with Tween-80 100 % of control

Oc1c(Cl)cc(Cl)cc1/C=N\NC(=S)Nc1ccccc1
inactive: dose: 100.0 mg/kg/injection, schedule: Q04DX002 (ip), vehicle: Klucel (hydroxypropylcellulose) (HPC) 97 % of control | dose: 200.0 mg/kg/injection, schedule: Q04DX002 (ip), vehicle: Klucel (hydroxypropylcellulose) (HPC) 95 % of control

O=C(Nc1ccccc1)Nc1ccc(OCc2ccccc2)cc1
inactive: [13] 90 % of control | [14] 88 % of control | [19] 114 % of control

COc1ccc2c([O-])c3[n+](c(OC)c2c1OC)CCc1cc2c(cc1-3)OCO2
inactive: dose: 50.0 mg/kg/injection, schedule: Q04DX002 (ip), vehicle: saline with Tween-80 94 % of control | dose: 100.0 mg/kg/injection, schedule: Q04DX002 (ip), vehicle: saline with Tween-80 104 % of control | dose: 200.0 mg/kg/injection, schedule: Q04DX002 (ip), vehicle: saline with Tween-80 103 % of control

NC(Cc1ccccc1Br)c1nn[nH]n1 (stereo not given)
inactive: [12] 97 % of control | [13] 104 % of control | [14] 114 % of control

CC(C)(OC(=O)NC(Cc1cnc[nH]1)C(=O)O)c1ccc(N=Nc2ccccc2)cc1 (stereo not given)
inactive: [13] 97 % of control | [14] 94 % of control | [19] 97 % of control

COC1/C=C\OC2(C)Oc3c(C)c(O)c4c(O)c(c5c(c4c3C2=O)NC2(CCN(C)CC2)N=5)=NC(=O)/C(C)=C\C=C\C(C)C(O)C(C)C(O)C(C)C(OC(C)=O)C1C (stereo not given)
inactive: dose: 25.0 mg/kg/injection, schedule: Q01DX009 (ip), vehicle: Klucel (hydroxypropylcellulose) (HPC) 100 % of control | dose: 50.0 mg/kg/injection, schedule: Q01DX009 (ip), vehicle: Klucel (hydroxypropylcellulose) (HPC) 100 % of control | [5] 102 % of control | [6] 94 % of control

Cc1ccc([C@H]2N[C@@H]2c2ccccn2)cc1
inactive: [15] 98 % of control | [16] 103 % of control

S=C(NNc1nnc(-c2ccccc2)c(-c2ccccc2)n1)NC1CCCCC1
inactive: [17] 93 % of control | [18] 88 % of control

O=[N+]([O-])/C=C/c1cc(Br)c(O)c(Br)c1
inactive: [8] 96 % of control | [9] 115 % of control | [10] 96 % of control

O=C/C=C/c1ccc2c(c1)OC(CO)C(c1ccc(O)c(O)c1)O2 (stereo not given)
inactive: dose: 3.12 mg/kg/injection, schedule: Q01DX005 (ip), vehicle: Klucel (hydroxypropylcellulose) (HPC) 86 % of control | dose: 6.25 mg/kg/injection, schedule: Q01DX005 (ip), vehicle: Klucel (hydroxypropylcellulose) (HPC) 91 % of control

CC(=O)N1C2=CCCC3CCCCC23c2ccccc21 (stereo not given)
inactive: [13] 98 % of control | [14] 93 % of control | [19] 89 % of control | dose: 400.0 mg/kg/injection, schedule: Q01DX009 (ip), vehicle: saline with Tween-80 95 % of control

CCCCOc1ccc(OCc2ccc(C)cc2)cc1
inactive: [13] 114 % of control | [14] 114 % of control | [19] 91 % of control
